Values of other authors as cited in patent US12697315B2, “Treatment for interstitial lung disease” (United Therapeutics Corporation, priority 2020, dated 2026).
Like-named read-outs stand apart in the source and are kept apart here.

Test system: IPF
Details: 52 weeks, cited from earlier work

Row | Structure (SMILES) | FVC % predicted, placebo corrected, rate of decline [% predicted] | FVC, placebo corrected, rate of decline | FVC, placebo corrected, rate of decline (pirfenidone) [mL]
1 | COC(=O)c1ccc2c(c1)NC(=O)/C2=C(\Nc1ccc(N(C)C(=O)CN2CCN(C)CC2)cc1)c1ccccc1 [Nintedanib, nintedanib] | 3.2 | ~ 109 mL | –
2 | Cc1ccc(=O)n(-c2ccccc2)c1 [Pirfenidone, pirfenidone] | – | – | 153 to 193
